Columns and labels:
hematopoietic cells [1] = experiment: VCN determination after 14 days in liquid culture of cells transduced with lentiviral vector; type: cell-based; details: 4 μg/mL protamine sulfate in media, 14 days liquid culture
Experimental: “Vector copy number” or “VCN” refers to the number of copies of vector in a sample divided by the number of cells. Generally the number of copies of vector is determined by quantitative polymerase chain reaction (qPCR) using a probe against the Psi sequence of the integrated provirus, and the number of cells is determined by qPCR using a probe against a human housekeeping gene for which there will be two copies per cell (one per chromosome).
An illustrative protocol for transduction of hematopoietic cells with lentiviral vectors as performed in the examples that follow is provided in FIG. 1, although in various experiments described in the examples, the transduction media included no TE, a single TE, or various combinations of TEs. Pre-stimulation included culturing the cells on plates coated with 2 ug/cm^2 RetroNectin™ (RN). […]
(§1) In another experiment, cells were transduced with either 1×10^7 TU/mL or 1×10^8 TU/mL of lentiviral vector in liquid culture in the presence of PGE2, and assayed for VCN determination after 14 days in liquid culture (FIG. 2B). […] A colony forming units (CFUs) assay was performed with transduced cells (FIG. 3A, CFCs=colony-forming cells), and VCN and percent (%) transduction were analyzed in single colonies (FIGS. 3B and 3C). […]

hematopoietic cells [2] = experiment: CFC/CFU assay: percent transduction analysed in single colonies; type: cell-based
Experimental: “Transduction efficiency” refers to the percentage of cells transduced with at least one provirus copy. For example if 1×10^6 cells are exposed to a virus and 0.5×10^6 cells are determined to have a least one copy of a virus in their genome, then the transduction efficiency is 50%. An illustrative method for determining transduction efficiency is flow cytometry.
As used herein, “CFC” refers to colony forming cells. The colony forming cell (CFC) assay is used to study the proliferation and differentiation pattern of hematopoietic progenitors by their ability to form colonies in a semisolid medium. The number and the morphology of the colonies formed by a fixed number of input cells provide preliminary information about the ability of progenitors to differentiate and proliferate. Exemplary assays are provided in Sarma et al. Colony forming cell (CFC) assay for human hematopoietic cells. J Vis Exp. 2010 Dec. 18; (46). […]
as §1

CD34+ cells = details: ex vivo culture of CD34+ cells; Heffner et al. 2018; cited from earlier work

With `CCCCC(C)(C)[C@H](O)/C=C/[C@H]1[C@H](O)CC(=O)[C@@H]1C/C=C\CCCC(=O)O` the “transduction efficiency as determined by VCN/cell” value (hematopoietic cells [1]; 1×10^7 or 1×10^8 TU/mL lentiviral vector, FIG. 2B) was “increased transduction efficiency”, the “transduction efficiency as measured by vector copy numbers/cell” value (hematopoietic cells [1]; PGE2 10, 30 or 50 μg/mL, 2.5×10^7 or 5×10^7 TU/mL VSVG-pseudotyped GFP LV, FIG. 2A) was “increase transduction efficiency” and the “percent (%) transduction, cells transduced” value (hematopoietic cells [2]; highest tested concentration of PGE2, single colonies, FIG. 3C) was “up to 75%”. The “percent (%) transduction, cells transduced” value (hematopoietic cells [2]; highest tested concentration, Example 2 (poloxamer F108 / LentiBOOST), FIG. 5C) was “up to 75%” and the “level of lentiviral transgene delivery” value (CD34+ cells) was “increase the level of lentiviral transgene delivery”.
